Results as given in patent publication US11478471B2, “Methods and compositions for treating diabetes, metabolic syndrome and other conditions” (priority 2005, dated 2022).
Converted amounts (≈) assume the structure as drawn. Like-named read-outs stand apart in the source and are kept apart here.

Columns and labels:
cholesterol levels = assay: Cholesterol levels in rats after oral dosing; format: in vivo, Sprague Dawley rats; details: single oral 200 mg/kg
Method: (§1) The rats were maintained as described above; the drugs were suspended in olive oil, and each rat was dosed once via gastric tube to achieve a dose of 200 mg/kg. All of the rats were dosed at a specific time so that all terminations occurred between 6 and 7 pm. […] Following sacrifice, plasma was prepared, and the concentration of corticosterone in the plasma was determined by ELISA. In the same plasma samples, total cholesterol levels were also determined.

[1] = 28 day GLP toxicity study in dogs; details: 28 days
Candida kefyr = assay: Antifungal MIC; format: cell-based; details: Kluyveromyces marxianus, DSM11954; DSM strain 11954, 48 h
Candida albicans = assay: Antifungal MIC; format: cell-based
Candida tropicalis = assay: Antifungal MIC; format: cell-based; details: read-out: MIC
Saccharomyces cerevisiae = assay: Antifungal MIC; format: cell-based; details: DSM01333, DSM strain 01333, 48 h
Cryptococcus neoformans = assay: Antifungal MIC; format: cell-based
testosterone levels = assay: Testosterone levels in rats after oral dosing; format: in vivo, Sprague Dawley rats; details: for Testosterone levels (mean ± SEM): 4 h after gavage
From the text: There was a single control group (dosed with vehicle).
The means of the vehicle treated groups are used as the time zero control point.

Candida parapsilosis = assay: Antifungal MIC; format: cell-based; details: Lodderomyces parapsilosis, read-out: MIC
Candida glabrata = assay: Antifungal MIC; format: cell-based; details: Nakaseomyces glabratus, read-out: MIC
plasma corticosterone = assay: Plasma corticosterone in rats after oral dosing (ELISA); format: in vivo, Sprague Dawley rats; details: for Corticosteroid Levels (mean ± SEM): 4 h after gavage
Method: To generate the results shown in FIG. 1, five groups (eight per group) of rats were used. The rats were maintained on a 14/10 hour light/dark cycle and allowed free access to food and water. Each rat was dosed (200 mg drug/kg body weight) via a gastric tube. […] All of the rats were dosed between 2.00 and 3.00 pm and were sacrificed four hours later (between 6.00 and 7.00 pm). Plasma was prepared and the concentration of corticosterone determined by an enzyme linked immuno assay (ELISA). In rats, the predominant active glucocorticoid is corticosterone; in humans, the predominant active glucucorticoid is the closely related molecule cortisol.
The rats were maintained and dosed as described above. Plasma was prepared and the concentration of corticosterone in the plasma determined by ELISA.
as §1
In the Table, corticosterone levels (mean±SEM; ng/mL) were determined four hours after oral gavage of the indicated drug (N=10/group). There was a single control group (dosed with vehicle).
Corticosterone levels (mean±SEM; ng/mL) were determined at the indicated times after oral gavage of the indicated drug at 200 mg/kg. […] The means of the vehicle treated groups are used as the time zero control point.

Candida guilliermondii = assay: Antifungal MIC; format: cell-based; details: Meyerozyma guilliermondii, DSM11947; DSM strain 11947, 48 h

With CC(=O)N1CCN(c2ccc(OC[C@@H]3CO[C@@](Cn4ccnc4)(c4ccc(Cl)cc4Cl)O3)cc2)CC1 [DIO-902, 2S,4R cis-1-acetyl-4-[4-[[2-(2,4-dichlorophenyl)-2-(1H-imidazol-1-ylmethyl)-1,3-dioxolan-4-yl]methoxyl]phenyl]piperazine] the “Cholesterol Levels (mean ± SEM)” value (cholesterol levels; 4 h) was 69.6 ± 1.9 mg/dL, the “Cholesterol Levels (mean ± SEM)” value (cholesterol levels; 8 h) was 73.5 ± 3.1 mg/dL and the “Cholesterol Levels (mean ± SEM)” value (cholesterol levels; 12 h) was 77.3 ± 3.9 mg/dL. For the same compound, the “Cholesterol Levels (mean ± SEM)” value (cholesterol levels; 16 h) was 61.9 ± 3.1 mg/dL, the “Cholesterol Levels (mean ± SEM)” value (cholesterol levels; 20 h) was 58 ± 1.2 mg/dL and the “Cholesterol Levels (mean ± SEM)” value (cholesterol levels; 24 h) was 61.9 ± 3.1 mg/dL. For the same compound, the QTc ([1]; dogs, 20 mg/kg/day) was “no obvious QTc prolongation”, the “food eaten less than placebo control group” value ([1]; dogs, 20 mg/kg/day) was 25-35% and the body weight gain ([1]; dogs, 20 mg/kg/day, females (placebo 0.9 kg)) was 0.14 kg. For the same compound, the body weight gain ([1]; dogs, 20 mg/kg/day, males (placebo 1.1 kg)) was 0.25 kg, the “change in serum chemistry measures” value ([1]; dogs, 2, 6.5, 20 mg/kg/day) was “reduction in cholesterol” and the hematology ([1]; dogs, 2, 6.5, 20 mg/kg/day) was “no hematological changes noted”. For the same compound, the “ophthalmological and electrocardiographic parameters” value ([1]; dogs, 2, 6.5, 20 mg/kg/day) was “no measurable effects”, the microscopic findings ([1]; dogs, any dose) was “no remarkable microscopic findings” and the MIC (Candida kefyr) was 0.03 µg/mL (≈ 0.0565 µM). It also gave an MIC (Candida albicans; DSM11225, DSM strain 11225, 48 h, read-out: MIC) of less than 0.015 µg/mL, an MIC (Candida albicans; DSM11943, DSM strain 11943, 48 h, read-out: MIC) of less than 0.015 µg/mL and an MIC (Candida albicans; DSM11944, DSM strain 11944, 48 h, read-out: MIC) of less than 0.015 µg/mL. It also gave an MIC (Candida albicans; DSM11945, DSM strain 11945, 48 h, read-out: MIC) of 0.03 µg/mL (≈ 0.0565 µM), an MIC (Candida albicans; DSM11948, DSM strain 11948, 48 h, read-out: MIC) of less than 0.015 µg/mL and an MIC (Candida albicans; DSM11949, 48 h) of 0.125 µg/mL (≈ 0.235 µM). For the same compound, the MIC (Candida albicans; strain 98-St-00799, 48 h, read-out: MIC) was less than 0.015 µg/mL, the MIC (Candida tropicalis; DSM11951, DSM strain 11951, 48 h) was 0.06 µg/mL (≈ 0.113 µM) and the MIC (Candida tropicalis; DSM11952, DSM strain 11952, 48 h) was 2 µg/mL (≈ 3.76 µM). It also gave an MIC (Candida tropicalis; DSM11953, DSM strain 11953, 48 h) of 0.06 µg/mL (≈ 0.113 µM), an MIC (Saccharomyces cerevisiae) of 0.25 µg/mL (≈ 0.47 µM) and an MIC (Cryptococcus neoformans; DSM11959, DSM strain 11959, 48 h) of 0.03 µg/mL (≈ 0.0565 µM). The MIC (Cryptococcus neoformans; DSM11960, DSM strain 11960, 48 h) was 0.125 µg/mL (≈ 0.235 µM), the “time for testosterone levels to return to normal” value (testosterone levels; 200 mg/kg) was no more than 8 h and the “Testosterone levels (mean ± SEM)” value (testosterone levels; single oral 50 mg/kg) was 2.6 ± 0.7 nmol/L. For the same compound, the “Testosterone levels (mean ± SEM)” value (testosterone levels; single oral 100 mg/kg) was 0.8 ± 0.3 nmol/L, the “Testosterone levels (mean ± SEM), time course” value (testosterone levels; single oral 200 mg/kg, 4 h) was 0.8 ± 0.2 nmol/L and the “Testosterone levels (mean ± SEM)” value (testosterone levels; single oral 200 mg/kg) was 0.2 ± 0.1 nmol/L. For the same compound, the “Testosterone levels (mean ± SEM), time course” value (testosterone levels; single oral 200 mg/kg, 8 h) was 5.9 ± 0.8 nmol/L, the “Testosterone levels (mean ± SEM), time course” value (testosterone levels; single oral 200 mg/kg, 12 h) was 3.4 ± 0.5 nmol/L and the “Testosterone levels (mean ± SEM), time course” value (testosterone levels; single oral 200 mg/kg, 16 h) was 3.9 ± 0.6 nmol/L. For the same compound, the “Testosterone levels (mean ± SEM), time course” value (testosterone levels; single oral 200 mg/kg, 20 h) was 5.2 ± 0.6 nmol/L, the “Testosterone levels (mean ± SEM), time course” value (testosterone levels; single oral 200 mg/kg, 24 h) was 4.4 ± 0.7 nmol/L and the “Testosterone levels (mean ± SEM)” value (testosterone levels; single oral 400 mg/kg) was 0.3 ± 0.1 nmol/L. For the same compound, the “Testosterone levels (mean ± SEM)” value (testosterone levels; single oral 600 mg/kg) was 0 ± 0 nmol/L, the MIC (Candida parapsilosis; DSM05784, DSM strain 05784, 48 h) was 0.03 µg/mL (≈ 0.0565 µM) and the MIC (Candida parapsilosis; DSM11224, DSM strain 11224, 48 h) was 0.03 µg/mL (≈ 0.0565 µM). The MIC (Candida glabrata; DSM11226, DSM strain 11226, 48 h) was 0.5 µg/mL (≈ 0.941 µM), the MIC (Candida glabrata; DSM11950, DSM strain 11950, 48 h) was 0.25 µg/mL (≈ 0.47 µM) and the “Corticosteroid Levels (mean ± SEM)” value (plasma corticosterone; single oral 50 mg/kg) was 186 ± 14.9 ng/mL. For the same compound, the “Corticosteroid Levels (mean ± SEM)” value (plasma corticosterone; single oral 100 mg/kg) was 139 ± 10.9 ng/mL, the “Corticosteroid Levels (mean ± SEM), time course” value (plasma corticosterone; single oral 200 mg/kg, 4 h) was 98 ± 10 ng/mL and the “Corticosteroid Levels (mean ± SEM)” value (plasma corticosterone; single oral 200 mg/kg) was 100 ± 8.6 ng/mL. For the same compound, the “Corticosteroid Levels (mean ± SEM), time course” value (plasma corticosterone; single oral 200 mg/kg, 8 h) was 116 ± 13 ng/mL, the “Corticosteroid Levels (mean ± SEM), time course” value (plasma corticosterone; single oral 200 mg/kg, 12 h) was 113 ± 8 ng/mL and the “Corticosteroid Levels (mean ± SEM), time course” value (plasma corticosterone; single oral 200 mg/kg, 16 h) was 133 ± 17 ng/mL. The “Corticosteroid Levels (mean ± SEM), time course” value (plasma corticosterone; single oral 200 mg/kg, 20 h) was 136 ± 12 ng/mL, the “Corticosteroid Levels (mean ± SEM), time course” value (plasma corticosterone; single oral 200 mg/kg, 24 h) was 103 ± 14 ng/mL and the “Corticosteroid Levels (mean ± SEM)” value (plasma corticosterone; single oral 400 mg/kg) was 84 ± 11.6 ng/mL. For the same compound, the “Corticosteroid Levels (mean ± SEM)” value (plasma corticosterone; single oral 600 mg/kg) was 80 ± 7.8 ng/mL and the MIC (Candida guilliermondii) was 0.06 µg/mL (≈ 0.113 µM).
